Measurements as given in US20250152585A1, “PHARMACEUTICAL COMPOUND” (Duke Street Bio Limited, priority 2022, published 2025).
pIC50, pKd: −log10 of the molar value. Like-named read-outs stand apart in the source and are kept apart here.

Columns and labels:
[1] = molecular target: T1, N-terminally FLAG-tagged PARP2 (amino acids 1-583) (Homo sapiens, UniProt Q9UGN5); experiment: PARP2 probe displacement HTRF assay; type: binding; details: binned Kd
T1 construct: N-terminally FLAG-tagged PARP2 (amino acids 1-583)
T1 sequence (Q9UGN5 whole entry, the tested form may be a part): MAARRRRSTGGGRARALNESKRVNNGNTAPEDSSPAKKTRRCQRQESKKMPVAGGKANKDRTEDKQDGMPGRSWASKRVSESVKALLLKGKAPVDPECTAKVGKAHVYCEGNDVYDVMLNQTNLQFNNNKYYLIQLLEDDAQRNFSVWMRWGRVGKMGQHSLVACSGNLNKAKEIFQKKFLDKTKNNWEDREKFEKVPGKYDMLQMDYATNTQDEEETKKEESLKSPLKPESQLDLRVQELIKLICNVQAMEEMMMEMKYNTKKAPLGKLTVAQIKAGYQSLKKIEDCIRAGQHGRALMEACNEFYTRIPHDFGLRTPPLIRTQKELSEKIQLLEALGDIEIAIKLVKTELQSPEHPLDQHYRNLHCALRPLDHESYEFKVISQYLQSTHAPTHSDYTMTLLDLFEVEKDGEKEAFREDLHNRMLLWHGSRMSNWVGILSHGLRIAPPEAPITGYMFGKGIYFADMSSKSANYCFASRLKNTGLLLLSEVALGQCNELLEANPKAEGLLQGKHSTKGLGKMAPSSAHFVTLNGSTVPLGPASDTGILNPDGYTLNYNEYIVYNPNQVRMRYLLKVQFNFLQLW
Procedure: Data analysis was performed identical as for PARP1.

[2] = molecular target: T2, full length N-terminally FLAG-tagged PARP1 (Homo sapiens, UniProt P09874); experiment: PARP1 probe displacement HTRF assay; details: for Selectivity: PARP1 over PARP2, ratio Kd (PARP2)/Kd (PARP1); for pKd: binned Kd
T2 sequence (P09874 whole entry): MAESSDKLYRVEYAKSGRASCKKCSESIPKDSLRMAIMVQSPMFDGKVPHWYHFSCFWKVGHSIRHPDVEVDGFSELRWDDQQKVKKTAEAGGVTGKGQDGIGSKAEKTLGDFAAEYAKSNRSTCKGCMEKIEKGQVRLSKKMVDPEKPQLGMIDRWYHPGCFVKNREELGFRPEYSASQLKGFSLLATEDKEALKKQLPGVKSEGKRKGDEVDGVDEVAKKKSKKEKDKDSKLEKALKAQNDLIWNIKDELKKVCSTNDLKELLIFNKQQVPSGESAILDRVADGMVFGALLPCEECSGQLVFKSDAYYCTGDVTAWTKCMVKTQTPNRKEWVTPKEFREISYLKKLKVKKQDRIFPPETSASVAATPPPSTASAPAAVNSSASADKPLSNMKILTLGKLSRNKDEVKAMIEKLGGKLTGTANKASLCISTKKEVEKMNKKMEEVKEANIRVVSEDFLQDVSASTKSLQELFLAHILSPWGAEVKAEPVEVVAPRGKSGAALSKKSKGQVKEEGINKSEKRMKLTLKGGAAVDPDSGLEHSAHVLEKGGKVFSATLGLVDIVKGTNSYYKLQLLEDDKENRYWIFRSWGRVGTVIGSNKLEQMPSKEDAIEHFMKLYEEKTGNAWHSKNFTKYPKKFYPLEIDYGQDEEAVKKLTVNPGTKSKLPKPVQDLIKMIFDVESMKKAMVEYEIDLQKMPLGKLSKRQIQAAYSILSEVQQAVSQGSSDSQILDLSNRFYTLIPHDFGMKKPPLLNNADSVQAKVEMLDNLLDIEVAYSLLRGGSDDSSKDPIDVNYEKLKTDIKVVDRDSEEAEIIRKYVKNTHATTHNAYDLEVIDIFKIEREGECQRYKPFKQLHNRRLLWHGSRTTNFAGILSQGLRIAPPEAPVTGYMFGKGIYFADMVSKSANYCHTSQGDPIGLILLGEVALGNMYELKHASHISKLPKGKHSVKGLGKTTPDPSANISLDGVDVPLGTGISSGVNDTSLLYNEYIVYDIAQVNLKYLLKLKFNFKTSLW

[3] = molecular target: T2, full length N-terminally FLAG-tagged PARP1; experiment: PARP1 biochemical DELFIA assay (auto-PARylation); parameters: recombinant full length human N-terminally FLAG-tagged PARP1
[4] = read-out: PARP1 HTRF, probe displacement HTRF
[5] = binned IC50, biochemical auto-PARylation assay
[6] = read-out: PARP1 HTRF, PARP1 probe displacement HTRF
[7] = binned IC50, PARP1 biochemical DELFIA assay
[8] = PARP1 HTRF, probe displacement HTRF

Row | Structure (SMILES) | pKd ([1]; probe displacement HTRF) | Selectivity ([2]; probe displacement HTRF) | pKd [2, 4] | pIC50 [3, 5] | pKd ([1]; PARP2 probe displacement HTRF) | pKd [2, 6] | pIC50 [3, 7] | pKd ([2]; PARP1 HTRF, PARP1 probe displacement HTRF) | pKd [2, 8]
1 | CNC(=O)c1ccc(N2CCC(N3CCC(c4cnc(C(F)(F)F)c(=O)[nH]4)C3)CC2)cn1 (single isomer, unassigned) [Compound 279a] | < 5.00 | + (+ indicates a value of 10 to less than 50) | 6.00 to 7.00 | 6.00 to 7.00 |  |  |  |  | 
2 | CNC(=O)c1ccc(N2CCC(N3CCCC(c4nc5c(Cl)cccc5c(=O)[nH]4)C3)CC2)cn1 (single isomer, unassigned) [Compound 44a] |  | +++ (+++ indicate a value of at least 100) |  |  | < 5.00 | > 8.00 | > 8.00 |  | 
3 | CNC(=O)c1ccc(N2CCC(N3CCC(c4nc5c(F)cccc5c(=O)[nH]4)C3)CC2)cn1 (single isomer, unassigned) [Compound 121a] |  | + (+ indicates a value of 10 to less than 50) |  |  | 6.00 to 7.00 | 7.00 to 8.00 | 7.00 to 8.00 |  | 
4 | CNC(=O)c1ccc(N2CCC(N3CCC(c4ccc(COC)c(=O)[nH]4)C3)CC2)cn1 (single isomer, unassigned) [Compound 207b] |  | − (− indicates a value of less than 10) |  |  | < 5.00 | 6.00 to 7.00 | 6.00 to 7.00 |  | 
5 | CNC(=O)c1ccc(N2CCC(N3CCCC(c4nc5cnccc5c(=O)[nH]4)C3)CC2)cn1 (single isomer, unassigned) [Compound 106a] |  | + (+ indicates a value of 10 to less than 50) |  |  | < 5.00 | 6.00 to 7.00 | 6.00 to 7.00 |  | 
6 | CNC(=O)c1ccc(N2CCC(N3CCC(c4nc5c(c(=O)[nH]4)CN(C)C5)C3)CC2)cn1 (racemic) [Compound 294rac] | < 5.00 | − (− indicates a value of less than 10) | 6.00 to 7.00 | 6.00 to 7.00 |  |  |  |  | 
7 | CNC(=O)c1ccc(N2CCC(N3CCC(c4ccc(OC)c(=O)[nH]4)C3)CC2)cn1 (single isomer, unassigned) [Compound 148b] |  | − (− indicates a value of less than 10) |  |  | < 5.00 | 5.00 to 6.00 | 5.00 to 6.00 |  | 
8 | CNC(=O)c1ccc(N2CCC(N3CCC(c4nc5ccc(Cl)cc5c(=O)[nH]4)C3)CC2)cn1 (racemic) [Compound 49rac] |  | +++ (+++ indicate a value of at least 100) |  |  | 6.00 to 7.00 | > 8.00 | > 8.00 |  | 
9 | CNC(=O)c1ccc(N2CCC(N3CCC(c4nc5c(Cl)cccc5c(=O)[nH]4)C3)CC2)cn1 (single isomer, unassigned) [Compound 52b, 5-(4-(3-(8-chloro-4-oxo-3,4-dihydroquinazolin-2-yl)pyrrolidin-1-yl)piperidin-1-yl)-N-methylpicolinamide] |  | +++ (+++ indicate a value of at least 100) |  |  | 6.00 to 7.00 |  | > 8.00 | > 8.00 | 
10 | CNC(=O)c1ccc(N2CCC(N3CCC(c4cc5cccc(F)c5c(=O)[nH]4)C3)CC2)nn1 (single isomer, unassigned) [Compound 209a] |  | +++ (+++ indicate a value of at least 100) |  |  | 6.00 to 7.00 | > 8.00 | > 8.00 |  | 
11 | CNC(=O)c1ccc(N2CCC(N3CCC(c4cc5ncc(Cl)cc5c(=O)[nH]4)C3)CC2)c(F)n1 (single isomer, unassigned) [Compound 344a] | < 5.00 | +++ (+++ indicate a value of at least 100) | > 8.00 | > 8.00 |  |  |  |  | 
12 | CCc1nc(C(=O)NC)ccc1N1CCC(N2CCC(c3nc4ccccc4c(=O)[nH]3)C2)CC1 (single isomer, unassigned) [Compound 118b] |  | ++ (++ indicates a value of 50 to less than 100) |  |  | < 5.00 | 7.00 to 8.00 | 7.00 to 8.00 |  | 
13 | CNC(=O)c1ccc(N2CCC(N3CCC(c4ccc(CCO)c(=O)[nH]4)C3)CC2)cn1 (racemic) [Compound 286rac] | < 5.00 | +++ (+++ indicate a value of at least 100) | 7.00 to 8.00 | 7.00 to 8.00 |  |  |  |  | 
14 | N#Cc1nc(C(=O)NC2CC2)ccc1N1CCC(N2CC3(c4nc5ccc(F)cc5c(=O)[nH]4)CC2C3)CC1 [Compound 388] | 6.00 to 7.00 | +++ (+++ indicate a value of at least 100) |  | > 8.00 |  |  |  |  | > 8.00
15 | CNC(=O)c1ccc(N2CCC(N3CCCC(F)(c4nc5ccccc5c(=O)[nH]4)C3)CC2)cn1 (single isomer, unassigned) [Compound 71a] |  | − (− indicates a value of less than 10) |  |  | < 5.00 | 5.00 to 6.00 | 5.00 to 6.00 |  | 
16 | O=c1[nH]c(C2CCCN(C3CCN(c4ccc(F)cc4F)CC3)C2)nc2ccccc12 (single isomer, unassigned) [Compound 113b] |  | + (+ indicates a value of 10 to less than 50) |  |  | < 5.00 | 6.00 to 7.00 | 6.00 to 7.00 |  | 
17 | CNC(=O)c1ccc(N2CCC(N3CCC(c4nc5c(c(=O)[nH]4)NCCN5)C3)CC2)cn1 (racemic) [Compound 226rac] | < 5.00 | ++ (++ indicates a value of 50 to less than 100) | 7.00 to 8.00 | 7.00 to 8.00 |  |  |  |  | 
18 | CNC(=O)c1ccc(N2CCC(N3CCC(c4cc5cccc(Cl)c5c(=O)[nH]4)C3)CC2)cn1 (single isomer, unassigned) [Compound 128a] |  | +++ (+++ indicate a value of at least 100) |  |  | 5.00 to 6.00 | 7.00 to 8.00 | 7.00 to 8.00 |  | 
19 | CNC(=O)c1ccc(N2CCC(N3CCC(c4cc5cccc(F)c5c(=O)[nH]4)C3)CC2)c(Cl)n1 (single isomer, unassigned) [Compound 183a] |  | +++ (+++ indicate a value of at least 100) |  |  | 5.00 to 6.00 | > 8.00 | > 8.00 |  | 
20 | CNC(=O)c1ccc(N2CCC(N3CC4(c5nc6ccc(F)cc6c(=O)[nH]5)CC3C4)CC2)c(C#N)n1 [Compound 387] | 6.00 to 7.00 | +++ (+++ indicate a value of at least 100) |  | > 8.00 |  |  |  |  | > 8.00
21 | CCNC(=O)c1ccc(N2CCC(N3CCC(c4nc5ccccc5c(=O)[nH]4)C3)CC2)cn1 (single isomer, unassigned) [Compound 111a] |  | + (+ indicates a value of 10 to less than 50) |  |  | 6.00 to 7.00 | 7.00 to 8.00 | 7.00 to 8.00 |  | 
22 | CNC(=O)c1ccc(N2CCC(N3CCC(c4[nH]c(=O)c5ccccc5c4C)C3)CC2)cn1 (racemic) [Compound 237rac] | 7.00 to 8.00 | ++ (++ indicates a value of 50 to less than 100) | > 8.00 | > 8.00 |  |  |  |  | 
23 | CNC(=O)c1ccc(N2CCC(N3CCC(c4nc5c(c(C(F)(F)F)nn5C)c(=O)[nH]4)C3)CC2)cn1 (single isomer, unassigned) [Compound 187a] |  | − (− indicates a value of less than 10) |  |  | 6.00 to 7.00 | 7.00 to 8.00 | 7.00 to 8.00 |  | 
24 | CNC(=O)c1ccc(N2CCC(N3CC4(c5nc6c(c(=O)[nH]5)CCCN6C)CC3C4)CC2)c(F)n1 [Compound 375, 6-fluoro-N-methyl-5-(4-(4-(8-methyl-4-oxo-3,4,5,6,7,8-hexahydropyrido[2,3-d]pyrimidin-2-yl)-2-azabicyclo[2.1.1]hexan-2-yl)piperidin-1-yl)picolinamide] | 6.00 to 7.00 | + (+ indicates a value of 10 to less than 50) |  | > 8.00 |  |  |  |  | > 8.00
25 | CC(=O)NC(=O)c1ccc(N2CCC(N3CCC(c4cc5ccccc5c(=O)[nH]4)C3)CC2)cc1 (single isomer, unassigned) [Compound 341b] | 6.00 to 7.00 | + (+ indicates a value of 10 to less than 50) | 7.00 to 8.00 | 7.00 to 8.00 |  |  |  |  | 
26 | CCc1cnc(C2CCN(C3CCC(F)(F)CC3)C2)[nH]c1=O (single isomer, unassigned) [Compound 38a] |  | − (− indicates a value of less than 10) |  |  | 5.00 to 6.00 | 5.00 to 6.00 | 5.00 to 6.00 |  | 
27 | CNC(=O)c1ccc(N2CCC(N3CCC(c4nc5c(c(=O)[nH]4)COC5)C3)CC2)cn1 (single isomer, unassigned) [Compound 272b] | < 5.00 | + (+ indicates a value of 10 to less than 50) | 6.00 to 7.00 | 6.00 to 7.00 |  |  |  |  | 
